Results as given in article PMC4595804, “A strategy to discover decoy chemokine ligands with an anti-inflammatory activity” (Scientific Reports, 2015).

What was measured:
Type in all cases: cell-based
CXCL11 = molecular target: T1, CXCL11 (Homo sapiens, UniProt O14625); test: Selectivity, neutraligand protocol, EGFP-CXCR3+ HEK cells; conditions: 10 μM compound, 5 nM CXCL11, EGFP-CXCR3+ HEK cells
T1 construct: thioredoxin-hexahistidin (TRX-(His)6) with enterokinase site; made in house; host or cells: E. coli BL21 (DE3)
T1 sequence (O14625 22-94): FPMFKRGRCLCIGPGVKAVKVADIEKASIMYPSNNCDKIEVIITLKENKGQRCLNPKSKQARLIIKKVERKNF
Method: (§1) Figure 6 (a) Selectivity of CCL17 and CCL22 neutraligands towards 10 chemokines according to the “neutraligand protocol”. […] Each column represents the mean (block) ± SD (bars) of n = 3 experiments performed in triplicate. *p < 0.05; **p < 0.01; ***p < 0.005 as compared to chemokine + DMSO. (b) Chemokine neutraligands inhibited CCR4 endocytosis induced by CCL22 or CCL17. EGFP-CCR4^+ HEK cells were incubated for 30 min with DMSO or chemokine (100 nM CCL22 or CCL17) in the presence or absence of test compounds. […] Cell surface EGFP-tagged CCR4 receptors were measured by EGFP antibody labeling and flow cytometry analysis. CCR4 internalization was expressed as a percentage of total receptor surface expression calculated using control cells incubated with DMSO (100%). Each column represents the mean (block) ± SD (bars) of n = 3 experiments performed in triplicate. *p < 0.05; **p < 0.01; ***p < 0.005 as compared to chemokine alone. (c,d) Inhibition of CCL17 and CCL22- induced CCR4^+HUT78 T cell chemotaxis by neutraligands. […] The number of migrating cells induced by a chemokine alone was set at 100% migration. The number of migrating cells in the presence of chemokine and compounds were expressed as the corresponding percentages. Results were analyzed by fitting the experimental curves (% of migrating cells vs log compound concentration) using the Kaleidagraph software program, and the corresponding IC50 values were calculated. Means and SD values of triplicates were plotted.
(§2) Human cDNAs encoding CCR4 and CXCR3 receptors were cloned in pIRES plasmid (Clontech) while cDNAs encoding CCR2, CCR5, CXCR2 and CXCR4 receptors were cloned in pCEP4 vector (Life technologies). […] Stably EGFP-CCR4^+ HEK cells were selected for 5 weeks with geneticin (G-418, 600μg/ml), and resulting cell clones were checked by fluorescence microscopy and FACS analysis. […]
(§3) Dye loaded cells were placed in the FlexStation 3 (Molecular Devices). Calcium mobilization was measured at 401 and 475 nm emission fluorescence after excitation at 355 nm. […] Raw fluorescence data (at 401 and 475 nm) were exported and the ratio 401/475 was calculated. The calcium response values (height of peak response over baseline) were determined. […] The Z’ factor[29] was calculated according to the following equation: Z’ = 1-(3SD+ + 3SD−)/|Ave+ − Ave−|, where SD+ and Ave+ are respectively the standard deviation and the mean value of the positive controls (chemokine + DMSO), while SD− and Ave− are respectively the standard deviation and the mean value of the negative controls (HEPES-BSA (0.1%) mixed with DMSO, or cells mixed with C-021). Hit molecules were confirmed by performing concentration-response curves and their half maximal inhibitory concentration (IC50) values were calculated using the Kaleidagraph software.

CXCL10 = molecular target: T2, CXCL10 (Homo sapiens, UniProt P02778); test: as above; conditions: 10 μM compound, 5 nM CXCL10, EGFP-CXCR3+ HEK cells
T2 construct: (His)6; made in house; host or cells: E. coli BL21 (DE3)
T2 sequence (P02778 22-98): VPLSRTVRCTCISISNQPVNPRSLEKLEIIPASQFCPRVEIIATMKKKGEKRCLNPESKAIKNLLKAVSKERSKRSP
Method: as §1, §2, §3

CCL4 = molecular target: T3, CCL4 (Homo sapiens, UniProt P13236); test: Selectivity, neutraligand protocol, EGFP-CCR5+ HEK cells; conditions: 10 μM compound, 5 nM CCL4, EGFP-CCR5+ HEK cells
T3 construct: purchased R&D systems
T3 sequence (P13236 24-92): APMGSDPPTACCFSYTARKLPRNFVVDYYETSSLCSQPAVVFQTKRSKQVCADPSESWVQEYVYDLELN
Method: as §1
(§4) Human cDNAs encoding CCR4 and CXCR3 receptors were cloned in pIRES plasmid (Clontech) while cDNAs encoding CCR2, CCR5, CXCR2 and CXCR4 receptors were cloned in pCEP4 vector (Life technologies). The receptors are cloned in frame with a signal peptide fused to enhanced green fluorescent protein (EGFP) as described previously. All plasmid constructs were fully sequenced prior to transfections. Human Kidney Embryonic HEK-293 cells (ATCC) were maintained in Minimal Essential Medium (MEM, Invitrogen) supplemented with 10% FCS, penicillin (100 U/ml), streptomycin (100 μg/ml) and L-glutamine (2 mM) (Invitrogen) at 37 °C and 5% CO2. The cells were transfected with pIRES EGFP-CCR4 plasmid using calcium phosphate precipitation method. Stably EGFP-CCR4^+ HEK cells were selected for 5 weeks with geneticin (G-418, 600μg/ml), and resulting cell clones were checked by fluorescence microscopy and FACS analysis. HEK cells stably expressing human CXCR2, CXCR3, CXCR4, CCR5 and CCR2 were generated as described previously.
(§5) Dye loaded cells were placed in the FlexStation 3 (Molecular Devices). Calcium mobilization was measured at 401 and 475 nm emission fluorescence after excitation at 355 nm. For the primary screening, the ligands (50μl of chemokine mixed with DMSO or test compounds) were added to the cells at 40 s, followed by digitonin addition (50μl) at 100 s to the cells. Molecules were screened at a final concentration of 2μg/ml with 5 nM CCL17 or CCL22. […] Raw fluorescence data (at 401 and 475 nm) were exported and the ratio 401/475 was calculated. The calcium response values (height of peak response over baseline) were determined. Hits were selected by comparing the response amplitude at the time of the chemokine addition ± test compound. The Z’ factor[29] was calculated according to the following equation: Z’ = 1-(3SD+ + 3SD−)/|Ave+ − Ave−|, where SD+ and Ave+ are respectively the standard deviation and the mean value of the positive controls (chemokine + DMSO), while SD− and Ave− are respectively the standard deviation and the mean value of the negative controls (HEPES-BSA (0.1%) mixed with DMSO, or cells mixed with C-021). Hit molecules were confirmed by performing concentration-response curves and their half maximal inhibitory concentration (IC50) values were calculated using the Kaleidagraph software.

CCL5 = molecular target: T4, CCL5 (Homo sapiens, UniProt P13501); test: as above; conditions: 10 μM compound, 5 nM CCL5, EGFP-CCR5+ HEK cells
T4 construct: (His)6; made in house; host or cells: E. coli BL21 (DE3)
T4 sequence (P13501 24-91): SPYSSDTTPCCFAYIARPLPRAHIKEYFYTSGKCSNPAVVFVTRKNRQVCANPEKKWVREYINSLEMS
Method: as §1, §4, §5

CCL3 = molecular target: T5, CCL3 (Homo sapiens, UniProt P10147); test: as above; conditions: 10 μM compound, 5 nM CCL3, EGFP-CCR5+ HEK cells
T5 construct: purchased R&D systems
T5 sequence (P10147 24-92): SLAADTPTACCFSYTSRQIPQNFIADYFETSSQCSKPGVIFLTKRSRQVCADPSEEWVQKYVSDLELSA
Method: as §1, §4, §5

O=C(OCC(O)CO)c1ccccc1O (stereo not shown) [GPN136, 2,3-dihydroxypropyl 2-hydroxybenzoate]
no effect: effect on calcium responses induced by CXCL11 (CXCL11) | effect on calcium responses induced by CXCL10 (CXCL10) | effect on calcium responses induced by CCL4 (CCL4) | effect on calcium responses induced by CCL5 (CCL5) | effect on calcium responses induced by CCL3 (CCL3)

CC(C)=CCn1cnc2c1c(=O)n(C)c(=O)n2C [GPN279, 1,3-dimethyl-7-(3-methylbut-2-enyl)-1H-purine-2,6(3H, 7H)-dione]
no effect: effect on calcium responses induced by CXCL11 (CXCL11) | effect on calcium responses induced by CXCL10 (CXCL10) | effect on calcium responses induced by CCL4 (CCL4) | effect on calcium responses induced by CCL5 (CCL5) | effect on calcium responses induced by CCL3 (CCL3)
